Test results published in the METLIN SMRT retention time set (Domingo-Almenara et al. 2019).

Assay: gradient 5% acetonitrile 3 min, to 50% in 2 min, to 85% in 15 min, held 3 min, 100 µL/min
Details: column: Zorbax Extend-C18 2.1 x 50 mm; eluents: water / acetonitrile, 0.1% formic acid
Outline: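 Pure standards were run in mixtures of ~100 molecules by HPLC coupled to a quadrupole time-of-flight mass spectrometer. The column was a Zorbax Extend-C18 (2.1 × 50 mm, 1.8 μm) at 100 μL/min, with water and acetonitrile each containing 0.1% formic acid, in positive and negative ionization mode. Dead and dwell volumes were 40 μL and 900 μL. Retention time was taken from computationally picked adduct peaks, each manually inspected, with data collected over 3 months.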

RP-LC retention time | SMILES
1000 s | CCc1ccc(N2C(=O)CN(S(C)(=O)=O)CC2(C)C(=O)NC2CCCCCCC2)cc1 (centres undefined)
659 s | CN(C)CC[C@@H](c1ccc(Cl)cc1)c1ccccn1
755 s | COc1ccc(C)cc1NC(=O)C1CC(=O)N(c2n[nH]c3ccccc23)C1 (centres undefined)
714 s | Cc1cc(NC(=O)Cn2ccn3nc(-c4ccccc4)c(CO)c3c2=O)no1
690 s | COc1cccc(OC)c1OCC(O)CN1CCN(c2ccc(F)cc2)CC1 (centres undefined)
898 s | COC(=O)c1ccc(NC(=O)N2CCCC2c2cccc(F)c2)cc1 (centres undefined)
543 s | O=C(c1cccc(-n2cnnn2)c1)N1CCN(Cc2nc3ccccc3[nH]2)CC1
623 s | COC1C(=O)N(CC2CC2)C12CCN(Cc1ccc(F)c(F)c1)CC2 (centres undefined)
612 s | COc1ccc(NC(=O)N2C[C@H]3C[C@H](C2)[C@H]2CCCC(=O)N2C3)cc1OC
718 s | Cn1cc(CC(=O)N2CCC(C(=O)NCC(F)(F)F)CC2)c2ccccc21
836 s | Cc1noc(-c2ccc(OC3CN(C(=O)NCc4ccccc4)C3)cc2)n1
719 s | Cc1cc(C)cc(Nc2c(-c3ccc(N4CCOCC4)cc3)nc3ncccn23)c1
1150 s | O=C(c1cccs1)N1CCc2c([nH]c3ccccc23)C1c1ccc(F)cc1 (centres undefined)
635 s | O=C(NCC(=O)N1CCN(c2ccccn2)CC1)c1ccc(OC(F)(F)F)cc1
672 s | CCOCCCNCc1ccc(-c2ccccc2F)o1
596 s | CCc1ccc(NC(=O)Cn2c(N)nc(CC)cc2=O)cc1
877 s | COC(=O)c1ccc(NC(=O)Cn2cccc(-c3nc(-c4ccc(F)cc4)no3)c2=O)cc1
1110 s | Cc1noc(-c2cccn2Cc2ccccc2Cl)n1
1260 s | CCCN(C(=O)c1ccc2c(c1)OCO2)c1nc(-c2ccccc2)cs1
664 s | C=CCN1CC(c2nc3ccccc3n2CC(O)COc2cc(C)ccc2C)CC1=O (centres undefined)
678 s | COc1cc(Cl)c(C)cc1NC(=O)Cn1ncc2c(N3CCN(c4ccccn4)CC3)ncnc21
607 s | CC(=O)N1CCCc2cc(S(=O)(=O)N3CCC(C(=O)NCc4ccccn4)CC3)ccc21

RP-LC retention time | SMILES
682 s | CCCCCOC(=O)Nc1nc(=O)n([C@@H]2O[C@H](C)[C@H](O)C2O)cc1F (some centres undefined)
669 s | CCCN1C(=O)C2CCC(=O)N2c2ccc(C(=O)NC(C)C)cc21 (centres undefined)
771 s | COc1ccc(Cl)cc1NC(=O)C1CCCN(C(=O)c2cc(-c3ccccn3)n[nH]2)C1 (centres undefined)
572 s | CC(NC(=O)Nc1ccccc1)C(c1ccccc1)N1CCN(C)CC1 (centres undefined)
853 s | O=C(NCC(O)(c1ccccc1)C(F)(F)F)c1ccc2nsnc2c1 (centres undefined)
729 s | COc1ccc(-c2n[nH]c3c2C(c2cc(OC)ccc2OC)NC3=O)cc1 (centres undefined)
686 s | CCOc1cccc(CNC(=O)C2CCN(Cc3cn(C)c4ccccc34)CC2)c1
987 s | COc1cc2c3c(c1OC)-c1cc4c(cc1CC3(C#N)N(C(=O)c1ccccc1)CC2)OCO4 (centres undefined)
809 s | CCc1c(C(=O)O)nnn1-c1ccc(Cl)c(C)c1
698 s | COC(=O)c1c(C)[nH]c(C(=O)N2CCCC(C(=O)NCCc3ccco3)C2)c1C (centres undefined)
1060 s | Clc1ccc(-c2nc3cnccn3c2Nc2cccc(Cl)c2)cc1
744 s | CN1C(=O)CC[C@]2(C(=O)NCc3cccc(C(F)(F)F)c3)CCCC[C@@H]12
661 s | COCC(=O)NC1CCC12CCN(C(=O)C1CCC1)CC2 (centres undefined)
980 s | Cc1cc2c(cc1S(=O)(=O)N1CCCCC1)N(C(=O)C1CC1)CC2
663 s | C=CCNC(=O)Cc1c(C)n(C)c2nc(-c3ccccc3)nn2c1=O
639 s | COc1ccc(CC(=O)Nc2ccc(-c3cn4ccc(C)nc4n3)cc2)cc1
674 s | CCN(CC)S(=O)(=O)c1ccc2nc(N3CCN(C4CCCCC4)CC3)cnc2c1
610 s | CCCN1CCN(CCCNC(=O)C2=Cc3cc(Br)ccc3OC2)CC1
1130 s | COc1cccc(-c2nc(Cn3c(=O)c4c(C)cc(C)nc4n(C)c3=O)c(C)o2)c1OC
584 s | Cn1cc(CN2CCC(C(=O)N3CCN(c4ccccn4)CC3)CC2)c2cc(Cl)ccc21
862 s | CCSc1ccccc1C(=O)NCCS(=O)(=O)N1CCc2ccccc2C1
980 s | O=C(NC1CCCCCCC1)C1CCCN(S(=O)(=O)c2c[nH]c(C(=O)N3CCCCCC3)c2)C1 (centres undefined)

RP-LC retention time | SMILES
598 s | Cn1cc(CCN2CCN(C(=O)c3ccccc3Br)CC2)c2cccnc21
750 s | Nc1cc(C2CCN(C(=O)Nc3ccc(F)c(Cl)c3)CC2)no1
958 s | Cc1nc(-c2cn(C(C)C)c3ncccc23)sc1C(=O)N1CCCCC1
744 s | O=C(NS(=O)(=O)c1ccc(F)cc1)c1ccccc1
854 s | CCOc1cc(C(=O)NC(C(=O)Nc2nc3ccccc3[nH]2)C(C)CC)cc(OCC)c1OCC (centres undefined)
667 s | CCOC(=O)N1CCN(c2cc(C(=O)O)c3cc(NC(=O)c4ccc(Cl)cc4)ccc3n2)CC1
886 s | Cc1nnc(-c2nnc(NCc3ccc(Cl)cc3)c3ccccc23)o1
605 s | Cc1nn(CC(=O)N2CCC(N3CCCCC3)CC2)c(=O)c2nn(-c3ccccc3)c(C)c12
592 s | C=C[C@H]1CN2CC[C@H]1C[C@H]2[C@H](O)c1ccnc2ccc(OC)cc12
753 s | O=C(c1ccco1)N1CCN(C(=O)c2sc3ncccc3c2-n2cccc2)CC1
654 s | COCCc1noc(C2CN(C(=O)c3ccsc3)C2)n1
705 s | CCn1cc(-c2ccc(Cl)cc2)cc1C(=O)NCCN1CCOCC1
870 s | O=C(NC1CCN(c2cc(-c3ccc(Cl)cc3)[nH]n2)C1)c1cccc(Br)c1 (centres undefined)
596 s | CCCCC(=O)Nc1cc(C(=O)O)ccc1N(C)CCc1c(C)nn(C)c1C
701 s | O=C(NCc1csc(C2CCN(C(=O)COc3ccccc3)CC2)n1)C1CC1
660 s | COc1ccc(-c2ncccc2CNS(=O)(=O)c2cccc(C#N)c2)cc1
680 s | COc1ccc(NC(=O)c2[nH]c3cc(C)sc3c2CN(C)C)cc1F
835 s | Cc1ccc(C(=O)N(c2ccc(Br)cc2)C2C=CS(=O)(=O)C2)cc1 (centres undefined)
617 s | Cc1c2cnn(-c3ccccc3)c(=O)c2c(C)n1C(C)C(=O)NCCN1CCCC1 (centres undefined)
795 s | CN1c2cc(Cl)ccc2C(=O)NC12CCN(C(=O)NCc1ccccc1)CC2
574 s | CN(C)S(=O)(=O)c1ccc(C(=O)Nc2sc3c(c2C#N)CC(C)(C)NC3(C)C)cc1
563 s | CCN1CCN(c2ncnc3sc(C(=O)NCCCOC)c(C)c23)CC1

RP-LC retention time | SMILES
658 s | Cc1ccccc1NC(=O)NCC1CCOCC1
707 s | CCn1cc(S(=O)(=O)N2CCC(c3noc(-c4ccncc4)n3)C2)cn1 (centres undefined)
1200 s | O=C(NCc1cc(F)cc(F)c1)c1c(O)c2cccnc2n(-c2cccc(F)c2)c1=O
578 s | O=C(N[C@@H]1CN(c2ccncn2)C[C@H]1CO)c1ccc2c(c1)OCO2
784 s | CC(C)NC(=O)c1ccc2c(c1)CCCN2C(=O)c1ccc(F)cc1
873 s | CC1=C(C(=O)Nc2cccc(C(=O)N3CCN(c4ccccc4)CC3)c2)SCCO1
755 s | CC(C)Cn1cc(CCNC(=O)Nc2c(F)cccc2F)c2cccnc21
793 s | CCCc1cc(C2CCCN2C(=O)c2ccc(OC)c(OC)c2)no1 (centres undefined)
922 s | COc1ccc(N2CC(c3noc(-c4cccc(OC)c4)n3)CC2=O)cc1 (centres undefined)
780 s | CC(=O)c1ccc(NC(=O)CN2C(=O)CC(c3ccccc3)=Nc3cccnc32)cc1
947 s | CC(C)c1ccc(C(=O)N2CCC(COc3ccc(C(=O)NC4CC4)cc3)CC2)cc1
595 s | Cc1ccc(CNC(=O)c2ccc3c(c2)ncn3CCN2CCCC2)cc1C
709 s | COc1ccc(C2(C(=O)N3CCc4nn(CC5CC5)c(=O)n4CC3)CC2)cc1
816 s | CCc1ccc(CN2C(=O)c3c(C(=O)OC)ncn3CC2(C)C(=O)NC2CCCC2)cc1 (centres undefined)
744 s | O=C(CCC(=O)N1c2ccccc2NC2=C(C(=O)CCC2)C1c1ccco1)Nc1ccccc1 (centres undefined)
974 s | COc1ccccc1-c1noc(CN2C(=O)COc3cc(Cl)ccc32)n1
912 s | Cc1sc2ccn(Cc3ccc(F)cc3)c(=O)c2c1C(=O)NCc1ccco1
808 s | COc1ccccc1N1CCN(c2ncc3c(n2)CCN(Cc2cccc(F)c2)C3)CC1
764 s | C=CCN(CC=C)S(=O)(=O)c1ccc(C(=O)Nc2nnc(CSC)o2)cc1
900 s | CCOc1ccc2c(n1)CCN(C(=O)Nc1ccc(C)c(C)c1)C2
646 s | O=C(Cc1ccc(F)cc1)NCC(=O)N1CCOC(c2ccccc2)C1 (centres undefined)

SMILES | RP-LC retention time
O=C(CN1CC=C(c2cnn(-c3ccc(F)cc3)c2)CC1)N1CCN(c2ccccc2F)CC1 | 748 s
CCn1cc(C(=O)Nc2cc(Cl)ccc2C)c2cccnc21 | 922 s
